Where a name gives a salt, the structure may show the parent alone.
Legend:
DBH = biological target: T1, DBH (Homo sapiens, UniProt P09172); settings: cited from earlier work; for DBH inhibition (in words): literature reports; for mode of DBH inhibition: phenethylalamine analogues
T1 sequence (P09172 1-617): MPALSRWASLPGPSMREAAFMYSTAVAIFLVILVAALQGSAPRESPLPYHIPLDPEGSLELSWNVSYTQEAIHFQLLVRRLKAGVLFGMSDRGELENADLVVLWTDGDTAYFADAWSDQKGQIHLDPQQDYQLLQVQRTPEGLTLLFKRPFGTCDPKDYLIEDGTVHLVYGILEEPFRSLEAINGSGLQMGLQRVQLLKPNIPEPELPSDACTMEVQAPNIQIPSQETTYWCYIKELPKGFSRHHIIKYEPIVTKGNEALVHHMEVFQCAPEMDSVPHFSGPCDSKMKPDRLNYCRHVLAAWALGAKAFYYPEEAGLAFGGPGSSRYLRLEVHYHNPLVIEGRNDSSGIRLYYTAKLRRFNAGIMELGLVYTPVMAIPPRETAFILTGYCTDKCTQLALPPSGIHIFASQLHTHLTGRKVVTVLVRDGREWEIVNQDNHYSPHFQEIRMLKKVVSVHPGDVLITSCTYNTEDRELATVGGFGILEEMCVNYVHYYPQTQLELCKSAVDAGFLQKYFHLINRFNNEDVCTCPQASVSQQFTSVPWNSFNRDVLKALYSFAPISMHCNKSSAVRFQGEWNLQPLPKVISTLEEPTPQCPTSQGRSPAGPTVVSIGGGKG

[1] = tested on: spontaneously hypertensive rats; assay: mean arterial blood pressure in spontaneously hypertensive rats; assay type: in vivo, rat; settings: 50 mg/kg intraperitoneally
Experimental: Further, spontaneously hypertensive rats were treated with a suspension or solution of N-(2-aminoethyl)-1-(3,5-difluorobenzyl)-2-mercaptoimidazole-5-carboxamid formate at a dose of 50 mg/kg intraperitoneally, and mean arterial blood pressure was monitored for 260 minutes using indwelling cannulae in the tail arteries.

## O=C(O)c1ccc(CCCCCl)cn1 [5-(4-chlorobutyl) picolinic acid]
DBH
  DBH inhibition (in words): inhibit DBH

## CN(C)C(=S)SCc1ccc(C(=O)O)nc1 [5-(dimethyldithiocarbamoylmethyl)picolinic acid]
DBH
  DBH inhibition (in words): DBH inhibitors

## NCCNC(=O)c1cnc(S)n1Cc1cc(F)cc(F)c1 [N-(2-Aminoethyl)-1-(3,5-difluorobenzyl)-2-mercaptoimidazole-5-carboxamide,formate]
[1]; 260 minutes
  blood pressure when monitoring was terminated: blood pressure remained decreased when monitoring was terminated
[1]; tail artery cannulae, monitored for 260 minutes
  mean arterial blood pressure reduction compared to vehicle-treated controls: significant blood pressure reductions
[1]; vs vehicle-treated controls
  time following treatment to significant blood pressure reductions: ≤ 30 min

## NNCc1ccccc1 [benzylhydrazine]
DBH
  mode of DBH inhibition: apparently act as competitive inhibitors

## NOCc1ccccc1 [Benzyloxyamine, benzyloxyamine]
DBH
  mode of DBH inhibition: apparently act as competitive inhibitors

## CCCCc1ccc(C(N)=O)nc1 [Bupicomide, 5-(n-butyl)picolinamine]
DBH
  DBH inhibition (in words): DBH inhibitor

## O=C(O)c1ccc(CCC(Br)CBr)cn1 (stereo not drawn) [5-(3,4-dibromobutyl)picolinic acid]
DBH
  DBH inhibition (in words): DBH inhibitors

From US4837353A, “Dopamine-β-hydroxylase inhibitors” (SmithKline Beckman Corporation, priority 1988, dated 1989)
